Experimental findings from patent US20260265256A1 (IMPACT THERAPEUTICS (SHANGHAI), INC., priority 2023, published 2026) are described below.

In the assay the test system is MDA-MB-436 cells. Briefly: Growth inhibition assay against BRCA mutant human breast cancer MDA-MB-436 cell line (CCK-8, 7 days). The note with it: 168 h, MDA-MB-436, 7 days, read-out: IC50 (nM), proliferation of human breast cancer cells MDA-MB-436. The format is cell-based. As to the method: The cells were cultured in complete medium (DMEM medium+10% FBS+Insulin+glutathione). When the confluence reached about 80%, cells were digested and gently dispensed from the bottom of the dish with a 1 mL pipette. Cell suspension was collected and centrifuged at 500 rpm for 3 min. The supernatant was discarded, and the cell pellet were re-suspended in complete medium. The cells were seeded into a culture dish at an appropriate proportion, and then cultured in a 5% CO2 incubator at 37° C. The assay was carried out when the cells were in optimum condition and the confluence was reached 80%. Cells in the logarithmic growth phase were taken to centrifugate, and the culture supernatant was removed. The cells were resuspended in refresh complete medium and counted. The resuspended cells were seeded at 3000/well in a 96-well plate and incubated at 37° C., 5% CO2 incubator overnight. […] The solution was mixed by oscillation. 0.10% DMSO was used as the control.
The next day, the 96-well plate inoculated with cells was taken out from the incubator, and the culture supernatant was removed. Then fresh medium of 195 uL/well and 5 μL/well of 40× test compound solution as mentioned above were added into the 96 well plate, respectively. Finally, the plate was incubated for 7 days in a 37° C. 5% CO2 incubator. The medium containing compound was changed on the fourth day. After 7 days, 20 μL of CCK-8 was added to each well and shaken gently, then was cultured for 4 hours. The plate was shaken for 5 min after incubation, the absorbance values of 450 nm or 650 nm wavelengths were recorded respectively (OD=absorbance value of 450 nm−absorbance value of 650 nm) by using the multifunction readout instrument.
Data were analyzed by software GraphPad Prism 6.0. The inhibitory activity of compounds on cell proliferation was plotted using cell survival rate against the compound concentration as coordinates. Cell survival rate %=(ODcompound−ODbackground)/(ODDMSO−ODbackground)×100.
Table 2 summarizes the inhibitory effect data (IC50) of the compounds on the proliferation of human breast cancer cells MDA-MB-436.
Regarding `CNC(=O)c1ccc(-n2cc3c(n2)CN(Cc2ccc4c([nH]c(=O)c5c(C)cnn54)c2F)C3)c(C)n1` [Example 2, 5-(5-((6-fluoro-3-methyl-4-oxo-4,5-dihydropyrazolo[1,5-a]quinoxalin-7-yl)methyl)-5,6-dihydropyrrolo[3,4-c]pyrazol-2(4H)-yl)-N,6-dimethylpicolinamide], the IC50 stood at 57 nM.

As for `CNC(=O)c1ccc(-n2cc3c(n2)CN(Cc2ccc4c([nH]c(=O)c5c(C)cnn54)c2F)C3)c(F)n1` [Example 3, 5-(5-((6-fluoro-3-methyl-4-oxo-4,5-dihydropyrazolo[1,5-a]quinoxalin-7-yl)methyl)-5,6-dihydropyrrolo[3,4-c]pyrazol-2(4H)-yl)-6-fluoro-N-methylpicolinamide], the IC50 turned out to be 9.71 nM.

With `CNC(=O)c1ccc(-n2cc3c(n2)CN(Cc2ccc4c([nH]c(=O)c5c(C)cnn54)c2F)C3)c(Cl)n1` [Example 4, 5-(5-((6-fluoro-3-methyl-4-oxo-4,5-dihydropyrazolo[1,5-a]quinoxalin-7-yl)methyl)-5,6-dihydropyrrolo[3,4-c]pyrazol-2(4H)-yl)-6-chloro-N-methylpicolinamide], the IC50 came out at 91 nM.

Regarding `CNC(=O)c1ccc(-n2cc3c(n2)CN(Cc2ccc4c([nH]c(=O)c5c(C)cnn54)c2F)C3)c(O)n1` [Example 5, 5-(5-((6-fluoro-3-methyl-4-oxo-4,5-dihydropyrazolo[1,5-a]quinoxalin-7-yl)methyl)-5,6-dihydropyrrolo[3,4-c]pyrazol-2(4H)-yl)-6-hydroxy-N-methylpicolinamide], the IC50 was greater than 100 nM.

As for `CCNC(=O)c1ccc(-n2cc3c(n2)CN(Cc2ccc4c([nH]c(=O)c5c(C)cnn54)c2F)C3)c(F)n1` [Example 7, N-ethyl-6-fluoro-5-(5-((6-fluoro-3-methyl-4-oxo-4,5-dihydropyrazolo[1,5-a]quinoxalin-7-yl)methyl)-5,6-dihydropyrrolo[3,4-c]pyrazol-2(4H)-yl)picolinamide], the IC50 was 27.2 nM.

`CNC(=O)c1ccc(-n2cc3c(n2)CN(Cc2ccc4c([nH]c(=O)c5c(F)cnn54)c2F)C3)c(O)n1` [Example 17, 5-(5-((3,6-difluoro-4-oxo-4,5-dihydropyrazolo[1,5-a]quinoxalin-7-yl)methyl)-5,6-dihydropyrrolo[3,4-c]pyrazol-2(4H)-yl)-6-hydroxy-N-methylpicolinamide]: the IC50 is greater than 100 nM.

With `O=C(NC1CC1)c1ccc(-n2cc3c(n2)CN(Cc2ccc4c([nH]c(=O)c5c(F)cnn54)c2F)C3)cn1` [Example 20, 5-(5-((3,6-difluoro-4-oxo-4,5-dihydropyrazolo[1,5-a]quinoxalin-7-yl)methyl)-5,6-dihydropyrrolo[3,4-c]pyrazol-2(4H)-yl)-N-cyclopropylpicolinamide], the IC50 was 0.65 nM.

As for `CNC(=O)c1ccc(-n2cc3c(n2)CCN(Cc2ccc4c([nH]c(=O)c5c(F)cnn54)c2F)C3)cn1` [Example 22, 5-(5-((3,6-difluoro-4-oxo-4,5-dihydropyrazolo[1,5-a]quinoxalin-7-yl)methyl)-4,5,6,7-tetrahydro-2H-pyrazolo[4,3-c]pyridin-2-yl)-N-methylpicolinamide], the IC50 was greater than 100 nM.

On to `CNC(=O)c1ccc(-n2cc3c(n2)CCN(Cc2ccc4c([nH]c(=O)c5c(F)cnn54)c2F)C3)c(C)n1` [Example 23, 5-(5-((3,6-difluoro-4-oxo-4,5-dihydropyrazolo[1,5-a]quinoxalin-7-yl)methyl)-4,5,6,7-tetrahydro-2H-pyrazolo[4,3-c]pyridin-2-yl)-N,6-dimethylpicolinamide], for which the IC50 was greater than 100 nM.

As for `CNC(=O)c1ccc(-n2cc3c(n2)CCN(Cc2ccc4c([nH]c(=O)c5c(F)cnn54)c2F)C3)c(F)n1` [Example 24, 5-(5-((3,6-difluoro-4-oxo-4,5-dihydropyrazolo[1,5-a]quinoxalin-7-yl)methyl)-4,5,6,7-tetrahydro-2H-pyrazolo[4,3-c]pyridin-2-yl)-6-fluoro-N-methylpicolinamide], the IC50 was greater than 100 nM.

For the compound `CNC(=O)c1ccc(-c2nc3c(o2)CN(Cc2ccc4c([nH]c(=O)c5c(C)cnn54)c2F)C3)cn1` [Example 32, 5-(5-((6-fluoro-3-methyl-4-oxo-4,5-dihydropyrazolo[1,5-a]quinoxalin-7-yl)methyl)-5,6-dihydro-4H-pyrrolo[3,4-d]oxazol-2-yl)-N-methylpicolinamide], the IC50 stood at 18.4 nM.

On to `CNC(=O)c1ccc(-c2nc3c(s2)CN(Cc2ccc4c([nH]c(=O)c5c(C)cnn54)c2F)C3)cn1` [Example 33, 5-(5-((6-fluoro-3-methyl-4-oxo-4,5-dihydropyrazolo[1,5-a]quinoxalin-7-yl)methyl)-5,6-dihydro-4H-pyrrolo[3,4-d]thiazol-2-yl)-N-methylpicolinamide], for which the IC50 was greater than 100 nM.

As for `CNC(=O)c1ccc(-n2nc3c(c2C)CN(Cc2ccc4c([nH]c(=O)c5c(F)cnn54)c2F)C3)cn1` [Example 40, 5-(5-((3,6-difluoro-4-oxo-4,5-dihydropyrazolo[1,5-a]quinoxalin-7-yl)methyl)-3-methyl-5,6-dihydropyrrolo[3,4-c]pyrazol-2(4H)-yl)-N-methylpicolinamide], the IC50 is greater than 100 nM.

Regarding `CNC(=O)c1ccc(-c2nc3c(n2C)CN(Cc2ccc4c([nH]c(=O)c5c(F)cnn54)c2F)C3)cn1` [Example 44, 5-(5-((3,6-difluoro-4-oxo-4,5-dihydropyrazolo[1,5-a]quinoxalin-7-yl)methyl)-1-methyl-1,4,5,6-tetrahydropyrrolo[3,4-d]imidazol-2-yl)-N-methylpicolinamide], the IC50 was greater than 100 nM.

Regarding `CNC(=O)c1ccc(-c2cc3c(o2)CN(Cc2ccc4c([nH]c(=O)c5c(F)cnn54)c2F)C3)cn1` [Example 46, 5-(5-((3,6-difluoro-4-oxo-4,5-dihydropyrazolo[1,5-a]quinoxalin-7-yl)methyl)-5,6-dihydro-4H-furo[2,3-c]pyrrol-2-yl)-N-methylpicolinamide], the IC50 amounted to 2.16 nM.

In the case of `CNC(=O)c1ccc(-c2cc3c(s2)CN(Cc2ccc4c([nH]c(=O)c5c(F)cnn54)c2F)C3)cn1` [Example 47, 5-(5-((3,6-difluoro-4-oxo-4,5-dihydropyrazolo[1,5-a]quinoxalin-7-yl)methyl)-5,6-dihydro-4H-thieno[2,3-c]pyrrol-2-yl)-N-methylpicolinamide], the IC50 amounted to 14.4 nM.

On to `CNC(=O)c1ccc(N2CC3CN(Cc4ccc5c([nH]c(=O)c6c(F)cnn65)c4F)CC3C2)c(F)n1` (stereo not drawn) [Example 61, 5-(5-((3,6-difluoro-4-oxo-4,5-dihydropyrazolo[1,5-a]quinoxalin-7-yl)methyl)hexahydropyrrolo[3,4-c]pyrrol-2(1H)-yl)-6-fluoro-N-methylpicolinamide], for which the IC50 is greater than 100 nM.

Regarding `CNC(=O)c1ccc(N2CC3CN(Cc4ccc5c([nH]c(=O)c6c(C)cnn65)c4F)CC3C2)c(F)n1` (stereo not drawn) [Example 64, 6-fluoro-5-(5-((6-fluoro-3-methyl-4-oxo-4,5-dihydropyrazolo[1,5-a]quinoxalin-7-yl)methyl)hexahydropyrrolo[3,4-c]pyrrol-2(1H)-yl)-N-methylpicolinamide], the IC50 is greater than 100 nM.
